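In this assay, cells in 96-well plates receive the compound at five concentrations for 48 hours. Endpoints are linearly interpolated between the surrounding concentrations. At the TGI there is no net growth.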 A value given as a limit tells only on which side of the number the result lay.

Some test systems named below: A498 renal; MDA-MB-231 breast; M14 melanoma; HCC-2998 colon; HOP-62 NSCLC; NCI-H522 lung; K-562 leukemia; HCT-116 colon; IGROV1 ovarian; SK-OV-3 ovarian.
What all share (test): growth of human tumour cells (NCI), 48 h

Take `O=c1oc2cccnc2n1CCCCN1CCN(c2ccccc2)CC1`: the TGI in the assay with A498 renal, in the assay on MDA-MB-231 breast, with M14 melanoma, with HCC-2998 colon, in the assay on HOP-62 NSCLC and in the assay on NCI-H522 lung was greater than 100 µM each time. Also, the TGI with K-562 leukemia, in the assay on HCT-116 colon, with IGROV1 ovarian and in the assay on SK-OV-3 ovarian was greater than 100 µM throughout.

As for `COc1ccc(OC)c(C[P+](c2ccccc2)(c2ccccc2)c2ccccc2)c1`, the TGI in the assay on A498 renal was 23.5 µM; in the assay with MDA-MB-231 breast, 34.9 µM; in the assay on M14 melanoma, 18.3 µM; in the assay on HCC-2998 colon, 26.2 µM; with HOP-62 NSCLC, 22.2 µM; with NCI-H522 lung it was greater than 39.4 µM. Moreover, the TGI in the assay with K-562 leukemia turned out to be 5.91 µM; with HCT-116 colon it was 14.4 µM; in the assay with IGROV1 ovarian, 21.7 µM; in the assay with SK-OV-3 ovarian, 11 µM.

As for `C=CC(OC(C)=O)c1ccc(OC(C)=O)cc1` (stereo not given), the TGI is 25.3 µM with A498 renal; 9.12 µM with MDA-MB-231 breast; 22.9 µM with M14 melanoma; 18.6 µM in the assay with HCC-2998 colon; 12.3 µM in the assay on HOP-62 NSCLC; 3.57 µM with NCI-H522 lung. Moreover, the TGI in the assay on K-562 leukemia is greater than 100 µM; in the assay on HCT-116 colon it was 19.4 µM; in the assay with IGROV1 ovarian, 29.5 µM; in the assay with SK-OV-3 ovarian it was 32.6 µM.

`C/C(=N/NC(=S)N1CCN(C(=S)N/N=C(/C)c2ccccn2)CC1)c1ccccn1`: the TGI in the assay with A498 renal was greater than 58.6 µM; in the assay on MDA-MB-231 breast, greater than 100 µM; with M14 melanoma it was 38.5 µM; in the assay with HCC-2998 colon, greater than 100 µM; in the assay with HOP-62 NSCLC, greater than 67.9 µM; in the assay on NCI-H522 lung, 99.2 µM. The TGI in the assay on K-562 leukemia, in the assay with HCT-116 colon, in the assay with IGROV1 ovarian and with SK-OV-3 ovarian was greater than 100 µM each time.

For the compound `CC(=O)NC(=O)NC1=NCCC(=O)N1CCc1c[nH]c2ccccc12`, the TGI in the assay with A498 renal, in the assay with MDA-MB-231 breast, with M14 melanoma, in the assay on HCC-2998 colon, in the assay with HOP-62 NSCLC and in the assay with NCI-H522 lung was greater than 100 µM each time. For the same compound, the TGI in the assay on K-562 leukemia, in the assay with HCT-116 colon, in the assay with IGROV1 ovarian and in the assay on SK-OV-3 ovarian was greater than 100 µM in each case.

For the compound `CC(C)(C)C(=O)N1CCN(C=O)C1=S`, the TGI is 80.8 µM in the assay with A498 renal; greater than 100 µM with MDA-MB-231 breast; greater than 100 µM with M14 melanoma; greater than 100 µM with HCC-2998 colon; greater than 100 µM in the assay with HOP-62 NSCLC; greater than 100 µM with NCI-H522 lung. Moreover, the TGI with K-562 leukemia, with HCT-116 colon, in the assay with IGROV1 ovarian and in the assay on SK-OV-3 ovarian was greater than 100 µM each time.

In the case of `CC1=CC[C@](C)(O)[C@@]2(C)CC[C@H]3C(=C(C)C)C(=O)C[C@]3(C)C[C@H]12`, the TGI with A498 renal was greater than 50 µM; with MDA-MB-231 breast it was greater than 50 µM; with M14 melanoma, greater than 50 µM; in the assay with HCC-2998 colon it was greater than 50 µM; in the assay with HOP-62 NSCLC it was greater than 50 µM; in the assay with NCI-H522 lung, 31.5 µM. Moreover, the TGI in the assay on K-562 leukemia is 17 µM; in the assay with HCT-116 colon it was greater than 50 µM; with IGROV1 ovarian, greater than 50 µM; in the assay with SK-OV-3 ovarian, greater than 50 µM.

Consider `COC(=O)/C=C1\C(=O)C=C2[C@@H]3C[C@H]4C[C@H](CC[C@@]4(C)N21)C3(C)NC(C)=O` (stereo not given in full), for which the TGI in the assay on A498 renal is 38.9 µM; in the assay on MDA-MB-231 breast, 56.2 µM; in the assay on M14 melanoma, 26.4 µM; in the assay with HCC-2998 colon, greater than 64.9 µM; with HOP-62 NSCLC it was 60.7 µM; in the assay with NCI-H522 lung it was 3.6 µM. Moreover, the TGI in the assay on K-562 leukemia is greater than 100 µM; in the assay on HCT-116 colon, 24 µM; with IGROV1 ovarian, 40.7 µM; in the assay with SK-OV-3 ovarian it was 55.7 µM.

For the compound `COc1ccc(NC(=O)CC(=O)N2N=C(N(c3ccccc3)c3ccccc3)CC2c2ccccc2)cc1` (stereo not given), the TGI with A498 renal, in the assay on MDA-MB-231 breast, in the assay on M14 melanoma, in the assay with HCC-2998 colon, in the assay on HOP-62 NSCLC and in the assay on NCI-H522 lung was greater than 100 µM in each case. Further, the TGI in the assay with K-562 leukemia, in the assay on HCT-116 colon, in the assay on IGROV1 ovarian and with SK-OV-3 ovarian was greater than 100 µM each time.

With `O=[N+]([O-])c1cc(F)ccc1Sc1ccccc1`, the TGI in the assay on A498 renal, with MDA-MB-231 breast, in the assay on M14 melanoma, in the assay with HCC-2998 colon, in the assay with HOP-62 NSCLC and in the assay with NCI-H522 lung was greater than 10 µM each time. For the same compound, the TGI in the assay with K-562 leukemia, in the assay with HCT-116 colon, in the assay with IGROV1 ovarian and with SK-OV-3 ovarian was greater than 10 µM throughout.

As for `O=C1/C(=C/c2ccc(O)cc2)CCC1CNc1ccccc1` (stereo not given), the TGI stood at 31.9 µM in the assay on A498 renal; 30.9 µM with MDA-MB-231 breast; 28.1 µM in the assay with M14 melanoma; 35.8 µM in the assay on HCC-2998 colon; 36.3 µM with HOP-62 NSCLC; 6.95 µM in the assay on NCI-H522 lung. Besides, the TGI with K-562 leukemia amounted to 4 µM; in the assay with HCT-116 colon, 17.5 µM; in the assay with IGROV1 ovarian it was 25.3 µM; with SK-OV-3 ovarian, 43.9 µM.

These data come from PubChem BioAssay (NCI).
